Results: the supplement of paper PMC4862054

Columns and labels:
Settings in all cases: incubation time: 72 h
HCC1937 [1] = experiment: drug sensitivity score (DSS), CellTiter-Glo (DSS (AUC-based score)); higher = stronger drug effect (viability inhibition or cytotoxicity); extreme values may be limits of the assay
Procedure, shortened: (§1)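 After 72 h of incubation in 384-well plates with compound at 5 concentrations (10-fold steps, 10,000-fold range set per compound), breast cancer cell lines seeded in 20 µl suspension were read first for CellTox Green fluorescence at 485/520 nm. CellTiter-Glo luminescence was measured next, after 10 min at room temperature. Normalisation on each plate used 0.1 % DMSO and a positive kill control, and the drug sensitivity score was computed from the area under the fitted dose-response curve.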

HDQ-P1 [2] = experiment: as above
Procedure, shortened: as §1

CAL-85-1 [3] = experiment: as above
Procedure, shortened: as §1

HCC1599 [4] = experiment: as above
Procedure, shortened: as §1

MDA-MB-436 [5] = experiment: as above
Procedure, shortened: as §1

CAL-51 [6] = experiment: as above
Procedure, shortened: as §1

MDA-MB-468 [7] = experiment: as above
Procedure, shortened: as §1

BT-474 [8] = experiment: as above
Procedure, shortened: as §1

CAL-120 [9] = experiment: as above
Procedure, shortened: as §1

CAL-148 [10] = experiment: as above
Procedure, shortened: as §1

BT-549 [11] = experiment: as above
Procedure, shortened: as §1

HCC1937 [12] = experiment: normalised viability (% of control), CellTiter-Blue; higher = more viable cells (about 100 = DMSO control)
Description: (§2)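 DSRT, CellTiter-Blue viability, 72 h incubation. Signal is normalised to DMSO and benzethonium chloride controls. Value is the normalised response at dose 3.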

HDQ-P1 [13] = experiment: as above
Description: as §2

CAL-85-1 [14] = experiment: as above
Description: as §2

MFM-223 = experiment: as above
Description: as §2

HCC1143 = experiment: as above
Description: as §2

MDA-MB-453 = experiment: as above
Description: as §2

HCC1599 [15] = experiment: as above
Description: as §2

MDA-MB-436 [16] = experiment: as above
Description: as §2

Hs578T = experiment: as above
Description: as §2

MDA-MB-231 = experiment: as above
Description: as §2

CAL-51 [17] = experiment: as above
Description: as §2

MDA-MB-468 [18] = experiment: as above
Description: as §2

BT-474 [19] = experiment: as above
Description: as §2

DU-4475 = experiment: as above
Description: as §2

CAL-120 [20] = experiment: as above
Description: as §2

CAL-148 [21] = experiment: as above
Description: as §2

SK-BR-3 = experiment: as above
Description: as §2

BT-549 [22] = experiment: as above
Description: as §2

SMILES	drug sensitivity score (HCC1937 [1])	drug sensitivity score (HDQ-P1 [2])	drug sensitivity score (CAL-85-1 [3])	drug sensitivity score (HCC1599 [4])	drug sensitivity score (MDA-MB-436 [5])	drug sensitivity score (CAL-51 [6])	drug sensitivity score (MDA-MB-468 [7])	drug sensitivity score (BT-474 [8])	drug sensitivity score (CAL-120 [9])	drug sensitivity score (CAL-148 [10])	drug sensitivity score (BT-549 [11])	normalised viability (HCC1937 [12]; 100 nM) [%]	normalised viability (HDQ-P1 [13]; 10 nM) [%]	normalised viability (CAL-85-1 [14]; 10 nM) [%]	normalised viability (MFM-223; 100 nM) [%]	normalised viability (HCC1143; 100 nM) [%]	normalised viability (MDA-MB-453; 10 nM) [%]	normalised viability (HCC1599 [15]; 100 nM) [%]	normalised viability (MDA-MB-436 [16]; 100 nM) [%]	normalised viability (Hs578T; 100 nM) [%]	further results
COc1cc([C@@H]2c3cc4c(cc3[C@@H](O[C@@H]3O[C@@H]5CO[C@@H](C)O[C@H]5[C@H](O)[C@H]3O)[C@H]3COC(=O)[C@H]23)OCO4)cc(OC)c1O [Etoposide]	0	0.733	0.96	9.75	7.41	8.68	5.45	3.57	2.02	7.19	5.14	91.3	94.2	101	98.7	84	108	115	97.6	84.3	normalised viability (MDA-MB-231; 100 nM): 96.6%; normalised viability (CAL-51 [17]; 10 nM): 91.1%; normalised viability (MDA-MB-468 [18]; 100 nM): 94.2%; normalised viability (BT-474 [19]; 100 nM): 108%; normalised viability (DU-4475; 10 nM): 115%; normalised viability (CAL-120 [20]; 100 nM): 90.8%; normalised viability (CAL-148 [21]; 10 nM): 93.8%; normalised viability (SK-BR-3; 100 nM): 58.5%; normalised viability (BT-549 [22]; 100 nM): 77.5%
Oc1nc(-c2ccc(C(F)(F)F)cc2)nc2c1CSCC2 [XAV-939]	0	0	0	0	0	8.6	0.9	3.54	0	0	0	101	104	96.3	96.5	77.6	101	116	128	88.3	normalised viability (MDA-MB-231; 100 nM): 89.1%; normalised viability (CAL-51 [17]; 10 nM): 98.8%; normalised viability (MDA-MB-468 [18]; 100 nM): 107%; normalised viability (BT-474 [19]; 100 nM): 107%; normalised viability (DU-4475; 10 nM): 111%; normalised viability (CAL-120 [20]; 100 nM): 97.2%; normalised viability (CAL-148 [21]; 10 nM): 92.6%; normalised viability (SK-BR-3; 100 nM): 112%; normalised viability (BT-549 [22]; 100 nM): 104%
Cc1ccc(-n2nc(C(C)(C)C)cc2NC(=O)Nc2ccc(OCCN3CCOCC3)c3ccccc23)cc1 [Doramapimod]	0	1.32	0	0	0	0	2.44	1.64	0	0	0	94.7	93.8	91.1	109	100	106	90.9	86	78	normalised viability (MDA-MB-231; 100 nM): 92.5%; normalised viability (CAL-51 [17]; 10 nM): 110%; normalised viability (MDA-MB-468 [18]; 100 nM): 98%; normalised viability (BT-474 [19]; 100 nM): 93.8%; normalised viability (DU-4475; 10 nM): 106%; normalised viability (CAL-120 [20]; 100 nM): 87.3%; normalised viability (CAL-148 [21]; 10 nM): 95.3%; normalised viability (SK-BR-3; 100 nM): 69.7%; normalised viability (BT-549 [22]; 100 nM): 98.7%
CN(N=O)C(=O)N[C@@H](C=O)[C@@H](O)[C@H](O)[C@H](O)CO [Streptozocin]	0	0	0	0	0	0	0	0	0	0	0	90.7	106	105	90.6	101	112	101	101	102	normalised viability (MDA-MB-231; 100 nM): 101%; normalised viability (CAL-51 [17]; 10 nM): 109%; normalised viability (MDA-MB-468 [18]; 100 nM): 106%; normalised viability (BT-474 [19]; 100 nM): 104%; normalised viability (DU-4475; 10 nM): 99.1%; normalised viability (CAL-120 [20]; 100 nM): 105%; normalised viability (CAL-148 [21]; 10 nM): 99.6%; normalised viability (SK-BR-3; 100 nM): 95.7%; normalised viability (BT-549 [22]; 100 nM): 104%
CNCc1ccc(-c2[nH]c3cc(F)cc4c3c2CCNC4=O)cc1 [Rucaparib]	0	0	0	0	1.14	0	2.43	1.39	0	1.62	0.12	85.9	109	87.6	109	110	98.8	114	129	75.2	normalised viability (MDA-MB-231; 100 nM): 98%; normalised viability (CAL-51 [17]; 10 nM): 114%; normalised viability (MDA-MB-468 [18]; 100 nM): 110%; normalised viability (BT-474 [19]; 100 nM): 100%; normalised viability (DU-4475; 10 nM): 106%; normalised viability (CAL-120 [20]; 100 nM): 93.3%; normalised viability (CAL-148 [21]; 10 nM): 83.4%; normalised viability (SK-BR-3; 100 nM): 76.4%; normalised viability (BT-549 [22]; 100 nM): 112%
CC(C)Cn1cnc2c(N)nc3ccccc3c21 [Imiquimod]	0	0	0	0	0	0	0	0	0	0	0	87.1	99.5	95.2	91.2	120	112	103	85.6	98.1	normalised viability (MDA-MB-231; 100 nM): 87.4%; normalised viability (CAL-51 [17]; 10 nM): 102%; normalised viability (MDA-MB-468 [18]; 100 nM): 106%; normalised viability (BT-474 [19]; 100 nM): 101%; normalised viability (DU-4475; 10 nM): 93.5%; normalised viability (CAL-120 [20]; 100 nM): 98.5%; normalised viability (CAL-148 [21]; 10 nM): 105%; normalised viability (SK-BR-3; 100 nM): 112%; normalised viability (BT-549 [22]; 100 nM): 96.1%
N[C@@H](CSC(c1ccccc1)(c1ccccc1)c1ccccc1)C(=O)O [S-trityl-L-cysteine]	0	0	0	0	0	0	0	0	0	0	0	–	–	–	–	–	–	–	–	–	normalised viability (HCC1937 [12]; 400 nM): 81.5%; normalised viability (HDQ-P1 [13]; 40 nM): 94.1%; normalised viability (CAL-85-1 [14]; 40 nM): 101%; normalised viability (MFM-223; 400 nM): 99.8%; normalised viability (HCC1143; 400 nM): 122%; normalised viability (MDA-MB-453; 40 nM): 88.8%; normalised viability (HCC1599 [15]; 400 nM): 89.6%; normalised viability (MDA-MB-436 [16]; 400 nM): 98.6%; normalised viability (Hs578T; 400 nM): 92.2%; normalised viability (MDA-MB-231; 400 nM): 91.7%; normalised viability (CAL-51 [17]; 40 nM): 87.4%; normalised viability (MDA-MB-468 [18]; 400 nM): 101%; normalised viability (BT-474 [19]; 400 nM): 109%; normalised viability (DU-4475; 40 nM): 99.9%; normalised viability (CAL-120 [20]; 400 nM): 110%; normalised viability (CAL-148 [21]; 40 nM): 106%; normalised viability (SK-BR-3; 400 nM): 95.8%; normalised viability (BT-549 [22]; 400 nM): 75.4%
COc1cc2nccc(Oc3ccc(NC(=O)C4(C(=O)Nc5ccc(F)cc5)CC4)cc3)c2cc1OC [Cabozantinib]	0	0	0	0	0	0	0	1.14	0	0	0	–	–	–	–	–	–	–	–	–	normalised viability (HCC1937 [12]; 10 nM): 95.4%; normalised viability (HDQ-P1 [13]; 1 nM): 99.5%; normalised viability (CAL-85-1 [14]; 1 nM): 91.8%; normalised viability (MFM-223; 10 nM): 93.5%; normalised viability (HCC1143; 10 nM): 81.3%; normalised viability (MDA-MB-453; 1 nM): 98.5%; normalised viability (HCC1599 [15]; 10 nM): 82.3%; normalised viability (MDA-MB-436 [16]; 10 nM): 108%; normalised viability (Hs578T; 10 nM): 91.1%; normalised viability (MDA-MB-231; 10 nM): 100%; normalised viability (CAL-51 [17]; 1 nM): 96.9%; normalised viability (MDA-MB-468 [18]; 10 nM): 123%; normalised viability (BT-474 [19]; 10 nM): 122%; normalised viability (DU-4475; 1 nM): 89.4%; normalised viability (CAL-120 [20]; 10 nM): 80.7%; normalised viability (CAL-148 [21]; 1 nM): 98.6%; normalised viability (SK-BR-3; 10 nM): 76.2%; normalised viability (BT-549 [22]; 10 nM): 104%
